This is an account of results in publication PMC8878748, “Broad-Spectrum Antiviral Activity of the Amphibian Antimicrobial Peptide Temporin L and Its Analogs” (International Journal of Molecular Sciences, 2022).

One series deals with HCoV-229E. The note with it: 2 h.
In the next series the test system is MeV. Conditions: for IC50 / IC90: 2 h.
For series [1] the following is noted: cited from earlier work.
The subject of another series is HPIV-3. Conditions: 2 h.
The subject of series [2] is influenza virus (subtype H1N1). Conditions: influenza virus (subtype, 2 h).
The nature of series [3]: MTT cytotoxicity assay on Vero cells. The class given is cell-based. The note with it: MTT, calculated after 2 h of peptide treatment.
A further series deals with HCoV-OC43. Conditions: 2 h.
In series [4] the test system is peripheral blood mononuclear cells (PBMCs). Put plainly: MTT cytotoxicity assay on PBMCs. The note with it: 2 h and 24 h. It counts as cell-based, human. The method, then: Vero cells (ATCC CCL-81, Manassas, VA, USA) and Vero/hSLAM cells (ECACC 04091501, Porton Down, UK) and Madin Darby canine kidney (MDCK, CCL-34) were grown in Dulbecco’s Modified Eagle Medium (DMEM) with 4.5 g/L glucose (Microtech, Naples, Italy) supplemented with 100 IU/mL penicillin and 100 μg/mL streptomycin (Himedia, Naples, Italy) and 10% Fetal Bovine Serum (Microtech). PBMCs were isolated as follow. Buffy coats acquired from a healthy anonymous donor were used to isolate PBMCs on a Ficoll-Hypaque density gradient (Sigma-Aldrich) according to standard procedures. Then, PBMCs were grown (5 × 10^6/mL) in RPMI 1640 (Microtech) supplemented with 10% FBS, 60 IU/mL of interleukin-2 (IL-2, Sigma-Aldrich) and 2 µg/mL of phytohemagglutinin (PHA) (Sigma-Aldrich).
Vero cells were seeded in 96-well microtiter tissue culture plates (5 × 10^3 cells /well) and incubated for 24 h at 37 °C in 5% CO2. PBMCs were isolated and then cultured at a concentration of 1 × 10^5 cells/well.
The cytotoxicity for both cell types was evaluated by the MTT (Sigma-Aldrich) assay based on the reduction of the yellowish MTT to the insoluble and dark blue formazan by viable and metabolically active cells. Temporin-based peptides were tested at […] concentrations (0.1, 1, 6.25, 12.5, 25, 50 and 100 µM) after 2 and 24 h. At the end of incubation, 100 μL of an MTT solution (5 mg/mL) was added in each well and incubated for 3 h at 37 °C. The supernatant was discarded and 100 μL of DMSO 100% (Sigma Aldrich) was added (to dissolve the formazan salts) for 10 min with vigorous agitation at room temperature. Cytotoxicity was evaluated by spectrophotometric reading at 540 nm. The viability of Vero cells in each well was presented as a percentage of control cells. All experiments were performed in triplicate, and the means standard deviations are reported. Nonlinear regression analysis was performed using GraphPad Prism software (GraphPad Software, San Diego, CA, USA) to determine the CC50.
A general note: Tetrazolium assays rely on reduction of a dye to a coloured formazan, in cell work by metabolically active cells.

The test system of the next series is human erythrocytes. The note with it: for hemolytic activity: at their antiviral concentrations. The method, then: The hemolytic activity of the peptides was determined using fresh human erythrocytes from healthy donors as reported previously. Briefly, the blood was centrifuged, and the erythrocytes were washed three times with 0.9% NaCl. Peptides were added to the erythrocyte suspension (5% v/v), at a final concentration ranging from 0.1 to 100 μM in a final volume of 100 μL. The samples were incubated with agitation at 37 °C for 60 min. The release of hemoglobin was monitored by measuring the absorbance (Abs) of the supernatant at 540 nm. The control for zero hemolysis (blank) consisted of erythrocytes suspended in the presence of peptide solvent. Hypotonically lysed erythrocytes were used as a standard for 100% hemolysis. The percentage of hemolysis was calculated using the equation: % hemolysis = [(Abssample − Absblank)/(Abstotal lysis − Absblank)] × 100

The next series concerns poliovirus Sb-1. It counts as cell-based.
In another series the test system is CV-B3. In words: Plaque reduction assay, CV-B3. The class given is cell-based, Enterovirus B (coxsackievirus B3, ATCC VR-688). The note with it: four experimental settings.

Read-outs that look alike come from different tables or passages of the source. Where a SMILES comes first, the peptide text is derived from it. [ ]: non-standard residue; d: D form. The star is where a group is joined. X1 = CC(C)CCC[C@@H](C)[C@H]1CC[C@H]2[C@@H]3CC=C4C[C@@H](OC(=O)CCOCCOCCOCCOCCNC(=O)C*)CC[C@]4(C)[C@H]3CC[C@]12C; dHyp = O=C(O)[C@H]1C[C@H](O)CN1; Undecanoyl = CCCCCCCCCCC(=O)*; Aic = NC1(C(=O)O)Cc2ccccc2C1; Nle = CCCC[C@H](N)C(=O)O

Usually IC50 stands for the concentration that gives 50% inhibition. Lower therefore signals inhibition by little substance. As usually defined, the IC90 is the concentration at which the effect reaches the 90% level. A high value points to a need for much substance. The CC50 is the concentration at which the toxic effect on the cells reaches its halfway point. For `CC[C@H](C)[C@H](NC(=O)[C@H](CCCNC(=N)N)NC(=O)C1(NC(=O)[C@@H](CC(C)C)NC(=O)[C@H](Cc2ccccc2)NC(=O)[C@H](CCCCN)NC(=O)[C@H](CO)NC(=O)[C@H](Cc2ccccc2)NC(=O)[C@H](Cc2c[nH]c3ccccc23)NC(=O)[C@@H]2CCCN2C(=O)[C@@H](NC(=O)[C@@H](N)Cc2ccccc2)C(C)C)Cc2ccccc2C1)C(=O)N[C@@H](CC(C)C)C(N)=O` [TL12, H-Phe-Val-Pro-Trp-Phe-Ser-Lys-Phe-DLeu-Aic-Arg-Ile-Leu-NH2] (H-FVPWFSKF[dL][Aic]RIL-NH2), the half-inhibitory concentration (IC50) worked out at 0.74 µM in the series with HCoV-229E; 30.4 µM in the series with MeV; 33.8 µM in the series with HPIV-3; 0.71 µM in series [2]; 0.62 µM in the series with HCoV-OC43. Further, the concentration for an effect of 90% (IC90) with HCoV-229E was 20.9 µM; in the series with MeV, > 50 µM; in the series with HPIV-3, > 50 µM; in series [2], 13.9 µM; with HCoV-OC43, 13.2 µM. The “%Helix in DPC” value in [1] (Table 2) was 18%. In addition, in series [3], the CC50 is 8.28 µM.
For the compound `CCCCCCCCCCC(=O)N[C@@H](Cc1ccccc1)C(=O)N[C@H](C(=O)N1CCC[C@H]1C(=O)N[C@@H](Cc1c[nH]c2ccccc12)C(=O)N[C@@H](Cc1ccccc1)C(=O)N[C@@H](CO)C(=O)N[C@@H](CCCCN)C(=O)N[C@@H](Cc1ccccc1)C(=O)N[C@H](CC(C)C)C(=O)N[C@@H](CCCC)C(=O)N[C@@H](CCCNC(=N)N)C(=O)N[C@H](C(=O)N[C@@H](CC(C)C)C(N)=O)[C@@H](C)CC)C(C)C` [TL6.5, H-Undecanoic acid-Phe-Val-Pro-Trp-Phe-Ser-Lys-Phe-DLeu-Nle-Arg-Ile-Leu-NH2] (Undecanoyl-FVPWFSKF[dL][Nle]RIL-NH2), in the series on MeV, the IC50 was 10 µM and the 90% effect level (IC90) was put at 29.2 µM. In [4], the “cytotoxicity on PBMCs” value was “minor damage”. For the same compound, in series [2], the IC50 is < 0.1 µM and the IC90 is < 0.1 µM. In addition, the CC50 in [3] is > 100 µM.
On to `CC[C@H](C)[C@H](NC(=O)[C@H](CCCNC(=N)N)NC(=O)[C@H]1C[C@H](O)CN1C(=O)[C@@H](CC(C)C)NC(=O)[C@H](Cc1ccccc1)NC(=O)[C@H](CCCCN)NC(=O)[C@H](CO)NC(=O)[C@H](Cc1ccccc1)NC(=O)[C@H](Cc1c[nH]c2ccccc12)NC(=O)[C@@H]1CCCN1C(=O)[C@@H](NC(=O)[C@@H](N)Cc1ccccc1)C(C)C)C(=O)N[C@@H](CC(C)C)C(N)=O` [TL5, H-Phe-Val-Pro-Trp-Phe-Ser-Lys-Phe-DLeu-DHyp-Arg-Ile-Leu-NH2] (H-FVPWFSKF[dL][dHyp]RIL-NH2), for which the concentration for half-maximal inhibition (IC50) (in the series with HCoV-229E; in the series on MeV; in the series on HPIV-3; in series [2]; with HCoV-OC43) was > 50 µM in each case. The IC90 (with HCoV-229E; with MeV; with HPIV-3; in [2]; in the series on HCoV-OC43) was > 50 µM throughout. For the same compound, in [1] (Table 2), the “%Helix in DPC” value was 9%. In addition, the CC50 in [3] is > 100 µM.
`CCCC[C@H](NC(=O)[C@@H](CC(C)C)NC(=O)[C@H](Cc1ccccc1)NC(=O)[C@H](CCCCN)NC(=O)[C@H](CO)NC(=O)[C@H](Cc1ccccc1)NC(=O)[C@H](Cc1c[nH]c2ccccc12)NC(=O)[C@@H]1CCCN1C(=O)[C@@H](NC(=O)[C@H](Cc1ccccc1)NC(=O)[C@@H](N)CSCC(=O)NCCOCCOCCOCCOCCC(=O)O[C@H]1CC[C@@]2(C)C(=CC[C@H]3[C@@H]4CC[C@H]([C@H](C)CCCC(C)C)[C@@]4(C)CC[C@@H]32)C1)C(C)C)C(=O)N[C@@H](CCCNC(=N)N)C(=O)N[C@H](C(=O)N[C@@H](CC(C)C)C(N)=O)[C@@H](C)CC` [TL6.3, H-[Cholesterol-PEG4]-Cys-Phe-Val-Pro-Trp-Phe-Ser-Lys-Phe-DLeu-Nle-Arg-Ile-Leu-NH2] (H-C(X1)FVPWFSKF[dL][Nle]RIL-NH2; N-terminus assumed): in the series on MeV, the half-maximal inhibitory concentration (IC50) was 22.3 µM and the 90% effect level (IC90) was put at 31.1 µM. Besides, the “cytotoxicity on PBMCs” value in [4] is given as “minor damage”. In [2], this compound came in with a concentration for half-maximal inhibition (IC50) of 2.55 µM and a concentration for an effect of 90% (IC90) of 5.89 µM. Further, the cytotoxic concentration (CC50) in series [3] is > 100 µM.
For “H-FVQWFSKFLGRIL-NH2 [TL, H-Phe-Val-Gln-Trp-Phe-Ser-Lys-Phe-Leu-Gly-Arg-Ile-Leu-NH2, reference compound]”, the hemolytic activity entry in the series on human erythrocytes is “practically devoid of hemolytic activity”. Moreover, the “concentration showing residual hemolytic activity” value in the series on human erythrocytes (red blood cells) is ≥ 50 µM. Also, in series [4], the “cytotoxicity on PBMCs” value is listed as “minor damage”. For the same compound, the CC50 in series [3] is 19.6 µM.
For the compound `CCCC[C@H](NC(=O)[C@@H](CC(C)C)NC(=O)[C@H](Cc1ccccc1)NC(=O)[C@H](CCCCN)NC(=O)[C@H](CO)NC(=O)[C@H](Cc1ccccc1)NC(=O)[C@H](Cc1c[nH]c2ccccc12)NC(=O)[C@@H]1CCCN1C(=O)[C@@H](NC(=O)[C@@H](N)Cc1ccccc1)C(C)C)C(=O)N[C@@H](CCCNC(=N)N)C(=O)N[C@H](C(=O)N[C@@H](CC(C)C)C(N)=O)[C@@H](C)CC` [TL6, H-Phe-Val-Pro-Trp-Phe-Ser-Lys-Phe-DLeu-Nle-Arg-Ile-Leu-NH2] (H-FVPWFSKF[dL][Nle]RIL-NH2), the IC50 in the series with HCoV-229E amounted to 2.08 µM; in the series with MeV it was 34.6 µM; in the series on HPIV-3, 32.4 µM; in series [2], 2.66 µM; in the series with HCoV-OC43, 0.97 µM. Also, the IC90 in the series with HCoV-229E is 13.1 µM; with MeV, > 50 µM; in the series with HPIV-3 it was > 50 µM; in series [2], 9.34 µM; in the series on HCoV-OC43, 10 µM. Moreover, the “%Helix in DPC” value in series [1] (Table 2) was 51%. Besides, the “cytotoxicity on PBMCs” value in series [4] was “minor damage”. In addition, in series [3], the CC50 is 64.5 µM.
Consider `CC[C@H](C)[C@H](NC(=O)[C@H](CCCNC(=N)N)NC(=O)CNC(=O)[C@@H](CC(C)C)NC(=O)[C@H](Cc1ccccc1)NC(=O)[C@H](CCCCN)NC(=O)[C@H](CO)NC(=O)[C@H](Cc1ccccc1)NC(=O)[C@H](Cc1c[nH]c2ccccc12)NC(=O)[C@@H]1CCCN1C(=O)[C@@H](NC(=O)[C@@H](N)Cc1ccccc1)C(C)C)C(=O)N[C@@H](CC(C)C)C(N)=O` [TL1, H-Phe-Val-Pro-Trp-Phe-Ser-Lys-Phe-DLeu-Gly-Arg-Ile-Leu-NH2] (H-FVPWFSKF[dL]GRIL-NH2), for which the IC50 in the series on HCoV-229E was 7.66 µM; in the series with MeV it was > 50 µM; in series [2] it was 6.74 µM. Further, the IC90 in the series on HCoV-229E is 30.1 µM; in the series with MeV it was > 50 µM; in [2] it was 12.5 µM. In addition, the “reduction of infectivity, MeV” value with MeV (cell pretreatment assay, peptide 25 μM) is “over 40%”. Besides, the “effect on MeV in the virus pretreatment assay” value with MeV (virus pretreatment assay) is on record as “not affected”. The “%Helix in DPC” value in series [1] (Table 1) and in series [1] (Table 2) was 42% in each case. Besides, the hemolytic activity entry in the series on human erythrocytes is “practically devoid of hemolytic activity”. Further, in the series with poliovirus Sb-1, the “infectivity of poliovirus Sb-1 in the presence of peptide” value is on record as “not altered”. The “cytotoxicity on PBMCs” value in [4] is listed as “minor damage”. Besides, the “infectivity of CV-B3 in the presence of peptide” value with CV-B3 was “not altered”. In addition, the CC50 in [3] was 42.2 µM.
